Measurements published in paper PMC10300352, “Discovery of novel benzylquinazoline molecules as p97/VCP inhibitors” (Frontiers in Pharmacology, 2023).
Where two headings read alike, the source gives them in different places.

Legend:
A549 = assay: Cell proliferation assay (MTT/CCK-8), A549; conditions: Homo sapiens, A549, 48 h, read-out: IC50 A549
Procedure: (§1) Cells were treated with the tested compounds in a variety of concentrations and incubated at 37°C for 48 h before measurement. IC50 values were calculated using the percentage of growth of treated cells versus the blank control (Table 2).
(§2) The medium was supplemented with 10% fetal bovine serum (FBS) (Hyclone, SH30084.03). Cells were cultured in an incubator containing 5% CO2 at 37°C.
(§3) Cells were seeded at 3,000–4,000 cells per well in a 96-well plate to test the antiproliferative activity of target compounds. Cells were treated with the compounds or positive controls 6 h after seeding (twofold dilution, eight concentrations). […] The results were analyzed using GraphPad Prism 7.0.

HepG2 = assay: Cell proliferation assay (MTT/CCK-8), HepG2; conditions: Homo sapiens, HepG2, 48 h, read-out: IC50 HepG2
Procedure: as §1, §2, §3

s180 = assay: Cell proliferation assay (MTT/CCK-8), s180; conditions: Mus musculus, S-180, 48 h, read-out: IC50 s180
Procedure: (§4) Cells were treated with the tested compounds in a variety of concentrations and incubated at 37°C for 48 h before measurement. […] Furthermore, we evaluated all compounds’ potency toward the normal human cell line NCM460.
as §2, §3

[1] = test system: SQSTM1/p62, ATF4, and NF-κB in HCT116 cells; assay: Western blot of p97 downstream biomarkers; conditions: DBeQ 10 μM, CB-5083 0.5 μM, 8 h treatment
Procedure: HCT116 cells were plated into 6-well plates (2 × 10^6 cells/well) when they were 70%–80% confluent. DMSO (0.5% v/v) or compounds were added, and cells were harvested after 8 h of treatment and washed three times with phosphate-buffered saline (PBS, pH 7.4). […] The secondary antibodies used were goat anti-mouse IgG (HRP, Abcam/ab6789).

HCT116 cells [2] = assay: Apoptosis assay, annexin V/PI staining and flow cytometry; conditions: 10 μM, 12 h; control cells 3.5%
Procedure: Apoptosis was measured by flow cytometry after staining with annexin V and propidium iodide (PI) in HCT116 (Figure 5).
The assay was performed as recommended by the manufacturer. Briefly, the HCT116 cells were seeded in 6-well plates (2 × 10^6 cells/well) and allowed to adhere for 4 hours. Then, each well was treated with DMSO (0.5% v/v) or compounds for 12 h. For the apoptosis experiment, at the end of treatment, the cells were washed twice with cold PBS and then harvested for staining with annexin V in binding buffer for 15 min in the dark at room temperature. The cells were washed in binding buffer and then incubated with propidium iodide. […] The samples were measured using flow cytometry (Beckman, cytoFLEX) within 4 h and analyzed using CytExpert (V 2.4.0.28).

RPMI-8226 = assay: Cell proliferation assay (MTT/CCK-8), RPMI-8226; conditions: Homo sapiens, RPMI-8226, 48 h, read-out: IC50 RPMI-8226
Procedure: as §1, §2, §3

NCM460 = assay: Cell proliferation assay (MTT/CCK-8), normal colon mucosal epithelial cell line NCM460; conditions: Homo sapiens, NCM460, 48 h, read-out: IC50 NCM460
Procedure: as §4, §2, §3

K562 = assay: Cell proliferation assay (MTT/CCK-8), K562; conditions: Homo sapiens, K562, 48 h, read-out: IC50 K562
Procedure: as §1, §2, §3

p97 [3] = conditions: cited from earlier work
HCT116 = assay: Cell proliferation assay (MTT/CCK-8), HCT116; conditions: Homo sapiens, HCT-116, 48 h, read-out: IC50 HCT116
Procedure: as §1, §2, §3

[4] = Myelosuppressive toxicity evaluation, peripheral blood counts of s180 mice; assay type: in vivo, ICR mice; conditions: day 10, 90 μmol/kg/day, vs vehicle
Procedure: To determine the effects on myelosuppression, WBC, RBC, PLT count, ALC, and ANC were performed in peripheral blood samples of s180 mice (Figure 7F) on day 10.

His6-p97 = His6-p97 (Homo sapiens, UniProt P55072); assay: Microscale thermophoresis (MST) binding assay with fluorescent-labeled His6-p97
Procedure: Fluorescent labeling of His6-p97 was carried out using the RED-tris-NTA labeling kit (Catalog No. MO-L011, NanoTemper Technologies) on a NanoTemper Monolith NT.115 following the manufacturer’s protocol. In brief, His6-p97 protein was diluted into 200 nM with PBST (0.05% Tween 20 in PBS), and red-NHS dye was diluted into 100 nM with PBST. Then, His6-p97 and RED-tris-NTA dye were mixed in a 1:1 volumetric ratio and incubated at room temperature for 30 min. […] Then 10 μL of compounds were mixed at different concentrations with 10 μL of dye-labeled His6-p97. Subsequently, well-mixed solutions containing compounds and dye-labeled His6-p97 were loaded into capillaries (Catalog No. MO-K025, NanoTemper Technologies), which were placed in slots 1–16 on the capillary rack. Then, MST experiments were carried out at an ambient temperature, and the instrument parameters were set to 20% LED power and medium MST power. The equilibrium dissociation constants were derived from the M.O. Affinity Analysis software using the K d model based on four independently titrated experiments per condition.

HCT116 cells [5] = assay: Cell cycle assay, PI staining and flow cytometry; assay type: cell-based, human; conditions: for effect on the cell cycle: HCT116, 12 h
p97 ATPase = p97 ATPase (Homo sapiens, UniProt P55072); assay: p97 ATPase inhibition, ADP-Glo kinase assay; conditions: for IC50 of inactivation activities against p97: ADP-Glo, 20 nM p97, 20 μM ATP
Procedure: As the major indicator of p97 inhibitors, the inactivation of p97 ATPase by the tested compounds was determined using an ADP-Glo kinase assay, in which the formation of ADP represented the activity of ATPase.
His‐tagged human VCP (hVCP) cDNA was amplified by PCR and cloned into PCR‐linearized pET15 b (Merck Millipore, Burlington, MA, United States) using a CloneEZ Kit (Genscript). The pET15 b‐hVCP plasmid was transformed into Escherichia coli BL21 (Rosetta; Novagen, Madison, WI, United States), and the transformed bacteria were pre-cultured in LB medium containing kanamycin and chloramphenicol overnight at 37°C. Protein expression was induced with 1 mmol/L isopropyl‐β‐D‐thiogalactopyranoside.
Protein concentrations were first normalized using a Pierce BCA protein assay kit (Thermo Fisher), and a standard series was prepared with the BSA provided (2 mg/ml–25 μg/μL). Twenty-five microliters of each standard and unknown sample was added to a 96-well plate in triplicate, and 200 μL of working reagent was added to each well and prepared according to the manufacturer’s guidelines.
The protein solution was diluted to 20 nM of p97 with 20 μM ATP in triplicate in 5 μL of 1× Kinase Reaction Buffer A (40 mM Tris, pH 7.5, 20 mM MgCl2, 0.1 mg/mL BSA) and incubated at 37°C for 30 min. After incubation, the solutions were equilibrated to RT for 5 min, and 5 μL of ADP-Glo reagent was added to stop the reaction and consume the remaining ATP. The solution was incubated for 40 min at RT. Ten microliters of kinase detection reagent was added and incubated for 30 min. The sample’s luminescence was recorded using a multimode microplate reader (SMP7, MD). Each sample was averaged across the three measurements and plotted as mean ± standard deviation.

p97 [6] = assay: In vivo p97 expression measurement by ELISA; conditions: day 10, oral 90 μmol/kg/day
[7] = literature values of DBeQ derivatives, Figure 2, read-out: IC50 (p97 inhibitors developed by several research groups)

Sequence of p97 ATPase (P55072 whole entry): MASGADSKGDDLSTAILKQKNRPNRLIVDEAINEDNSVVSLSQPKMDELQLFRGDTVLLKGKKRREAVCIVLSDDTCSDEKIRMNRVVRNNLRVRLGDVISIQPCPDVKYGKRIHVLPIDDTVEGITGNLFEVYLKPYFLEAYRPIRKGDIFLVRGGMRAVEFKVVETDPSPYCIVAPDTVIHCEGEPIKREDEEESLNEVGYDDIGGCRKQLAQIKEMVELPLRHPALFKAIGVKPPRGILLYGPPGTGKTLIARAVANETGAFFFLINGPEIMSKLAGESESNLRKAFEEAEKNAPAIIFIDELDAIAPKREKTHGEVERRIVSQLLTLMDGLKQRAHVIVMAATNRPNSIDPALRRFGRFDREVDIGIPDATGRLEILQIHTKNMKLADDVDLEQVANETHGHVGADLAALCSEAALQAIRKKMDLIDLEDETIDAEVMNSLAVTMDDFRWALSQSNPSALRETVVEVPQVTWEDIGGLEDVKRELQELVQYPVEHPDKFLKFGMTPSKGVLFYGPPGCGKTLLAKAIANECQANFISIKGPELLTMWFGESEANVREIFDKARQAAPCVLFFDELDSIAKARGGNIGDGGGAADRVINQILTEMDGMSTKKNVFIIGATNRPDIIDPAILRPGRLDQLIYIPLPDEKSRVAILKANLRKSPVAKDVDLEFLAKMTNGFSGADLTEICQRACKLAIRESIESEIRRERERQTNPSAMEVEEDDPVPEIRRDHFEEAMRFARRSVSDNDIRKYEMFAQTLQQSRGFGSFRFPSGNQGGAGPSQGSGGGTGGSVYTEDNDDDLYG
Sequence of His6-p97 (P55072 whole entry): as above

SMILES	IC50 (A549) [µM]	IC50 (HepG2) [µM]	IC50 (s180) [µM]	proportion of apoptotic cells (HCT116 cells [2]) [%]	IC50 (RPMI-8226) [µM]	IC50 (NCM460) [µM]	IC50 (K562) [µM]	IC50 (p97 [3]; [7]) [µM]	IC50 (HCT116) [µM]	Kd (His6-p97) [µM]	other results
Cc1cc2c(C(N)=O)cccc2n1-c1nc2c(c(NCc3ccccc3)n1)COCC2 [CB-5083, reference compound]	0.77 ± 0.38	0.16 ± 0.03	0.24 ± 0.29	20.42	0.15 ± 0.02	0.078 ± 0.015	0.7 ± 0.42	0.011	0.47 ± 0.16	–	autophagosome formation in the cytoplasm [1]: induced accumulation; levels of the ER stress biomarker (ATF4) [1]: increased levels; body weight change (oral 90 μmol/kg/day, 10 days): obvious weight loss effects; death of mice during the in vivo experiments (oral 90 μmol/kg/day, 10 days): death occurred on day 8; ALC [4]: significantly lower; ANC [4]: significantly lower; WBC [4]: significantly lower
O=C(NNc1ncnc2ccccc12)c1cnccn1 [Compound 4, Nʹ-(Quinazolin-4-yl)pyrazine-2-carbohydrazide]	> 100	> 100	1.04 ± 0.37	8.31	5.24 ± 0.45	49.8 ± 3.25	66.7 ± 9.97	–	3.48 ± 0.21	0.64 ± 0.26	effect on the cell cycle (HCT116 cells [5]): cell proportion in the S phase in the compound 4-treated group was notably higher than that in the vehicle group; IC50 (p97 ATPase): 0.108 µM
Nc1nccnc1C(=O)NNc1ncnc2ccccc12 [Compound 5, 3-Amino-Nʹ-(quinazolin-4-yl)pyrazine-2-carbohydrazide]	24.2 ± 5.39	4.53 ± 1.26	6.9 ± 2	9.34	0.75 ± 0.01	24.2 ± 1.05	1.79 ± 0.73	–	5.83 ± 1.03	0.4 ± 0.15	IC50 (p97 ATPase): 0.072 µM
COc1cccc2c(NNC(=O)c3cnccn3)ncnc12 [Compound 6, Nʹ-(8-Methoxyquinazolin-4-yl)pyrazine-2-carbohydrazide]	> 100	> 100	1.72 ± 0.69	20.68	3.61 ± 0.27	36.2 ± 2.89	> 100	–	2.94 ± 0.1	–	death of mice during the in vivo experiments (mouse, in vivo, po): no mice died; body weight change (oral 90 μmol/kg/day, 10 days): No obvious loss of body weight; ALC [4]: no significant changes; ANC [4]: no significant changes; PLT count [4]: no significant changes; RBC [4]: no significant changes; WBC [4]: no significant changes
COc1cccc2c(NNC(=O)c3nccnc3N)ncnc12 [Compound 7, 3-Amino-Nʹ-(8-methoxyquinazolin-4-yl)pyrazine-2-carbohydrazide]	> 100	> 100	32.4 ± 2.57	8.94	39.8 ± 0.95	27.3 ± 1.62	> 100	–	> 100	–	effect on the cell cycle (HCT116 cells [5]): arrested the cells in both G0/G1 and S phases
O=C(O)/C=C/c1ccc(Nc2nc(NCc3cnccn3)c3ccccc3n2)cc1 [Compound 10a, (E)-3-(4-((4-((Pyrazin-2-ylmethyl)amino)quinazolin-2-yl)amino)phenyl)acrylic acid]	–	–	–	–	–	–	–	–	–	5	IC50 of inactivation activities against p97 (p97 ATPase): Inactive
COc1cccc2c(NCc3cnccn3)nc(Nc3ccc(/C=C/C(=O)O)cc3)nc12 [Compound 10b, (E)-3-(4-((8-Methoxy-4-((pyrazin-2-ylmethyl)amino)quinazolin-2-yl)amino)phenyl)acrylic acid]	–	–	–	–	–	–	–	–	–	> 10	IC50 of inactivation activities against p97 (p97 ATPase): Inactive
NC(=O)/C=C/c1ccc(Nc2nc(NCc3cnccn3)c3ccccc3n2)cc1 [Compound 11a, (E)-3-(4-((4-((Pyrazin-2-ylmethyl)amino)quinazolin-2-yl)amino)phenyl)acrylamide]	–	–	–	–	–	–	–	–	–	> 10	IC50 of inactivation activities against p97 (p97 ATPase): Inactive
COc1cccc2c(NCc3cnccn3)nc(Nc3ccc(/C=C/C(N)=O)cc3)nc12 [Compound 11b, (E)-3-(4-((8-Methoxy-4-((pyrazin-2-ylmethyl)amino)quinazolin-2-yl)amino)phenyl)acrylamide]	–	–	–	–	–	–	–	–	–	> 10	IC50 of inactivation activities against p97 (p97 ATPase): Inactive
COc1cccc2c(NCc3ccccc3)nc(NCc3ccccc3)nc12 [Compound P2-B11]	–	–	–	–	–	–	–	3.4	–	–	–
c1ccc(CNc2nc(NCc3ccccc3)c3ccccc3n2)cc1 [DBeQ]	11.6 ± 0.84	7.57 ± 1.2	2.69 ± 0.82	19.65	4.29 ± 2.46	6.44 ± 0.36	5.64 ± 1.08	–	4.78 ± 0.22	0.68 ± 0.059	autophagosome formation in the cytoplasm [1]: induced accumulation; levels of the ER stress biomarker (ATF4) [1]: increased levels; p97 concentration in the serum (p97 [6]): lowered; G0/G1 phase fraction (HCT116 cells [5]; 12 h, same concentration as apoptosis measurement, vehicle 32.82%): 33.53%; percentage of cells in the S phase (HCT116 cells [5]; 12 h, vehicle 23.61%): 16.74%; percentage of cells in the G2/M phase (HCT116 cells [5]; 12 h, vehicle 43.51%): 49.30%; effect on the cell cycle (HCT116 cells [5]): arrested the cell cycle at the G2/M phase; IC50 (p97 [3]; ref Chou et al., 2011, read-out: IC50 in the ATPase activity assays): < 10 µM; IC50 (p97 ATPase): 0.657 µM; ALC [4]: significantly reduced; ANC [4]: no significant alterations; PLT count [4]: no significant alterations; RBC [4]: no significant alterations; WBC [4]: significantly reduced
COc1cccc2c(NCc3ccccc3)nc(-n3c(C)cc4c(NS(C)(=O)=O)cccc43)nc12 [ML-240]	–	–	–	–	–	–	–	0.11	–	–	–
c1ccc(CNc2nc(N3CCOc4ccccc43)nc3c2CCCC3)cc1 [ML-241]	–	–	–	–	–	–	–	0.1	–	–	–
Cc1cc2c(NS(C)(=O)=O)cccc2n1-c1nc2c(c(NCc3ccccc3)n1)COCC2 [compound 35]	–	–	–	–	–	–	–	0.036	–	–	–
